PubChem BioAssay AID1259407 (Chemical Carcinogenesis Research Information System (CCRIS), 2018)
The source made the active and inactive calls. The rule behind the calls is not given here.

System: CCRIS mutagenicity, Ames/micronucleus/aberration tests
Assay: CCRIS mutagenicity studies
Settings: Test System: AMES SALMONELLA TYPHIMURIUM
[1] = Strain/Indicator: TA98, Metabolic Activation: HAMSTER, LIVER, S-9, AROCLOR 1254 (10%), Method: PREINCUBATION
[2] = Strain/Indicator: TA98, Metabolic Activation: NONE, Method: PREINCUBATION
[3] = Strain/Indicator: TA98, Metabolic Activation: RAT, LIVER, S-9, AROCLOR 1254 (10%), Method: PREINCUBATION
[4] = Strain/Indicator: TA100, Metabolic Activation: HAMSTER, LIVER, S-9, AROCLOR 1254 (10%), Method: PREINCUBATION
[5] = Strain/Indicator: TA100, Metabolic Activation: NONE, Method: PREINCUBATION
[6] = Strain/Indicator: TA100, Metabolic Activation: RAT, LIVER, S-9, AROCLOR 1254 (10%), Method: PREINCUBATION
[7] = Strain/Indicator: TA1535, Metabolic Activation: HAMSTER, LIVER, S-9, AROCLOR 1254 (10%), Method: PREINCUBATION
[8] = Strain/Indicator: TA1535, Metabolic Activation: NONE, Method: PREINCUBATION
[9] = Strain/Indicator: TA1535, Metabolic Activation: RAT, LIVER, S-9, AROCLOR 1254 (10%), Method: PREINCUBATION
[10] = Strain/Indicator: TA1537, Metabolic Activation: NONE, Method: PREINCUBATION
[11] = Strain/Indicator: TA100, Metabolic Activation: RAT, LIVER, S-9, AROCLOR 1254, Method: PREINCUBATION
[12] = Strain/Indicator: TA100, Metabolic Activation: NONE, Method: STANDARD PLATE

CCC(CO)[N+](=O)[O-] (stereo not given)
mutagenic call (Strain/Indicator: TA97, Metabolic Activation: HAMSTER, LIVER, S-9, AROCLOR 1254 (10%), Method: PREINCUBATION): inactive; negative
mutagenic call (Strain/Indicator: TA97, Metabolic Activation: HAMSTER, LIVER, S-9, AROCLOR 1254 (30%), Method: PREINCUBATION): inactive; negative
mutagenic call (Strain/Indicator: TA97, Metabolic Activation: NONE, Method: PREINCUBATION): inactive; negative
mutagenic call (Strain/Indicator: TA97, Metabolic Activation: RAT, LIVER, S-9, AROCLOR 1254 (10%), Method: PREINCUBATION): inactive; negative
mutagenic call (Strain/Indicator: TA97, Metabolic Activation: RAT, LIVER, S-9, AROCLOR 1254 (30%), Method: PREINCUBATION): inactive; negative
mutagenic call [1]: inactive; negative
mutagenic call (Strain/Indicator: TA98, Metabolic Activation: HAMSTER, LIVER, S-9, AROCLOR 1254 (30%), Method: PREINCUBATION): inactive; negative
mutagenic call [2]: inactive; negative
mutagenic call [3]: inactive; negative
mutagenic call (Strain/Indicator: TA98, Metabolic Activation: RAT, LIVER, S-9, AROCLOR 1254 (30%), Method: PREINCUBATION): inactive; negative
mutagenic call (Strain/Indicator: TA98, Metabolic Activation: RAT, LIVER, S-9, AROCLOR, Method: PREINCUBATION): inactive; negative
mutagenic call [4]: inactive; negative
mutagenic call (Strain/Indicator: TA100, Metabolic Activation: HAMSTER, LIVER, S-9, AROCLOR 1254 (30%), Method: PREINCUBATION): inactive; negative
mutagenic call [5]: inactive; negative
mutagenic call [6]: inactive; negative
mutagenic call (Strain/Indicator: TA100, Metabolic Activation: RAT, LIVER, S-9, AROCLOR 1254 (30%), Method: PREINCUBATION): inactive; negative
mutagenic call (Strain/Indicator: TA100, Metabolic Activation: RAT, LIVER, S-9, AROCLOR, Method: PREINCUBATION): inactive; negative
mutagenic call (Strain/Indicator: TA102, Metabolic Activation: NONE, Method: PREINCUBATION): inactive; negative
mutagenic call (Strain/Indicator: TA102, Metabolic Activation: RAT, LIVER, S-9, AROCLOR, Method: PREINCUBATION): inactive; negative
mutagenic call [7]: inactive; negative
mutagenic call (Strain/Indicator: TA1535, Metabolic Activation: HAMSTER, LIVER, S-9, AROCLOR 1254 (30%), Method: PREINCUBATION): inactive; negative
mutagenic call [8]: inactive; negative
mutagenic call [9]: inactive; negative
mutagenic call (Strain/Indicator: TA1535, Metabolic Activation: RAT, LIVER, S-9, AROCLOR 1254 (30%), Method: PREINCUBATION): inactive; negative
mutagenic call (Strain/Indicator: TA1537, Metabolic Activation: HAMSTER, LIVER, S-9, AROCLOR 1254 (30%), Method: PREINCUBATION): inactive; negative
mutagenic call [10]: inactive; negative
mutagenic call (Strain/Indicator: TA1537, Metabolic Activation: RAT, LIVER, S-9, AROCLOR 1254 (30%), Method: PREINCUBATION): inactive; negative

Cn1c(N)nc2cc(O)ccc21
mutagenic call (Strain/Indicator: TA98, Metabolic Activation: RAT, LIVER, S-9, AROCLOR 1254, Method: PREINCUBATION): inactive; negative
mutagenic call [11]: inactive; negative

CC(C)=CCC/C(C)=C/CO
mutagenic call (Strain/Indicator: TA98, Metabolic Activation: NONE, Method: STANDARD PLATE): inactive; negative
mutagenic call (Strain/Indicator: TA98, Metabolic Activation: S-9, Method: STANDARD PLATE): inactive; negative
mutagenic call [12]: inactive; negative
mutagenic call (Strain/Indicator: TA100, Metabolic Activation: S-9, Method: STANDARD PLATE): inactive; negative

c1ccc2c(c1)-c1ccc3ccc4cccc5cc-2c1c3c45
mutagenic call [12]: inactive; negative
mutagenic call [11]: active; positive
mutagenic call (Strain/Indicator: TA100, Metabolic Activation: RAT, LIVER, S-9, AROCLOR 1254, Method: STANDARD PLATE): active; positive
mutagenic call (Strain/Indicator: TA1537, Metabolic Activation: RAT, LIVER, S-9, AROCLOR 1254, Method: STANDARD PLATE): active; positive
mutagenic call (Strain/Indicator: TA1538, Metabolic Activation: RAT, LIVER, S-9, AROCLOR 1254, Method: STANDARD PLATE): active; positive

O=C1OC(=O)c2c(Br)c(Br)c(Br)c(Br)c21
mutagenic call [1]: inactive; negative
mutagenic call [2]: inactive; negative
mutagenic call [3]: inactive; negative
mutagenic call [4]: inactive; negative
mutagenic call [5]: inactive; negative
mutagenic call [6]: inactive; negative
mutagenic call [7]: inactive; negative
mutagenic call [8]: inactive; negative
mutagenic call [9]: inactive; negative
mutagenic call (Strain/Indicator: TA1537, Metabolic Activation: HAMSTER, LIVER, S-9, AROCLOR 1254 (10%), Method: PREINCUBATION): inactive; negative
mutagenic call [10]: inactive; negative
mutagenic call (Strain/Indicator: TA1537, Metabolic Activation: RAT, LIVER, S-9, AROCLOR 1254 (10%), Method: PREINCUBATION): inactive; negative
